# Data: patent US20060069132A1, “Azolecarboxamide herbicides” (priority 2004, published 2006)
# Assays:
# lambsquarters = assay: Test B pre-/postemergence herbicide test; type: in vivo, Chenopodium album
# Outline: (§1)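 Test chemicals in a non-phytotoxic solvent mixture with surfactant were applied preemergence to seeded species and postemergence to plants 2-18 cm tall (1- to 4-leaf stage); rice and barnyardgrass were also tested in a flooded paddy at the 2-leaf stage. Visual rating versus controls after 13-15 days in greenhouse, scale 0 (no effect) to 100 (complete control).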
# wheat = assay: Test B postemergence herbicide test; type: in vivo, Triticum aestivum; set-up: key to Wheat plant response rating: 0 = no effect, 100 = complete control
# Outline: (§2)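 Formulated test chemicals went onto postemergence plants measuring 2 to 18 cm, at one to four leaves. For the paddy assay, species had reached two leaves. Scoring took place 13–15 days later by eye, relative to untreated plants, using 0 for no effect up to 100 for full control.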
# blackgrass = assay: Test B postemergence herbicide test; type: in vivo, Alopecurus myosuroides
# Outline: (§3)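 After treating 2-leaf paddy plants or 2–18 cm postemergence plants (1 to 4 leaves) with formulated chemical, researchers kept them in a greenhouse for 13–15 days. Effects were judged visually versus controls: 0 indicates none, 100 total control.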
# morningglory = assay: Test B pre-/postemergence herbicide test; type: in vivo, Ipomoea coccinea
# Outline: (§4)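 Flooded paddy rice and barnyardgrass were treated at the 2-leaf stage; upland plantings received compound either on sown seed or on 1- to 4-leaf seedlings. All were kept 13–15 days in a greenhouse and scored visually, 0–100, relative to untreated plants.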
# large crabgrass = assay: Test B pre-/postemergence herbicide test; type: in vivo, Digitaria sanguinalis
# Outline: as §1
# wild oat = assay: Test B postemergence herbicide test; type: in vivo, Avena fatua
# Outline: as §2
# rice = assay: Test B flooded paddy test; type: in vivo, Oryza sativa; conditions: 1000 g ai/ha, scale 0 to 100 (0 no effect, 100 complete control)
# Outline: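 Paddy species grown to the 2-leaf stage under flooding; blackgrass sprayed postemergence at 2–18 cm (1- to 4-leaf stage). Plants kept in a greenhouse for 13 to 15 days, then visually rated against controls on 0 (no effect) to 100 (complete control).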
# ducksalad = assay: Test B flooded paddy test; type: in vivo, Heteranthera limosa; conditions: 1000 g ai/ha, scale 0 to 100 (0 no effect, 100 complete control)
# Outline: as §3
# barnyardgrass [1] = assay: Test B pre-/postemergence herbicide test; type: in vivo, Echinochloa crus-galli
# Outline: as §4
# cocklebur = assay: Test B pre-/postemergence herbicide test; type: in vivo, Xanthium strumarium
# Outline: as §4
# corn = assay: Test B pre-/postemergence herbicide test; type: in vivo, Zea mays
# Outline: as §1
# barnyardgrass [2] = assay: Test B flooded paddy test; type: in vivo, Echinochloa crus-galli; conditions: 1000 g ai/ha, scale 0 to 100 (0 no effect, 100 complete control)
# Outline: as §3
# [3] = tested on: small flower umbrella sedge; assay: Test B flooded paddy test; type: in vivo, Cyperus difformis; conditions: 1000 g ai/ha, scale 0 to 100 (0 no effect, 100 complete control)
# Outline: as §3
# Surinam grass = assay: Test B pre-/postemergence herbicide test; type: in vivo, Urochloa decumbens
# Outline: as §1
# velvetleaf = assay: Test B pre-/postemergence herbicide test; type: in vivo, Abutilon theophrasti
# Outline: as §1
# [4] = 125 g ai/ha; 0 = no effect, 100 = complete control; preemergence
# [5] = 125 g ai/ha; visual rating, scale 0 (no effect) to 100 (complete control); postemergence
# [6] = 500 g ai/ha; visual rating, 0 = no effect, 100 = complete control; preemergence
# [7] = postemergence, 500 g ai/ha; scale 0 to 100, 0 is no effect, 100 is complete control
# [8] = 125 g ai/ha, 0 = no effect, 100 = complete control, preemergence
# [9] = 125 g ai/ha, visual rating, scale 0 (no effect) to 100 (complete control), postemergence
# [10] = 500 g ai/ha, visual rating, 0 = no effect, 100 = complete control, preemergence
# [11] = postemergence, 500 g ai/ha, scale 0 to 100, 0 is no effect, 100 is complete control
# [12] = 500 g ai/ha; visual rating 0-100, 0 no effect, 100 complete control; preemergence
# [13] = postemergence, 125 g ai/ha; visual rating, scale 0 (no effect) to 100 (complete control)
# [14] = postemergence, 500 g ai/ha; visual rating, scale 0 (no effect) to 100 (complete control)
# [15] = preemergence, 125 g ai/ha; 0 to 100 scale, 0 is no effect, 100 is complete control
# [16] = 500 g ai/ha, visual rating 0-100, 0 no effect, 100 complete control, preemergence
# [17] = postemergence, 125 g ai/ha, visual rating, scale 0 (no effect) to 100 (complete control)
# [18] = postemergence, 500 g ai/ha, visual rating, scale 0 (no effect) to 100 (complete control)
# [19] = preemergence, 125 g ai/ha, 0 to 100 scale, 0 is no effect, 100 is complete control
# [20] = Postemergence, 500 g ai/ha; visual rating after 13 to 15 days, scale 0 (no effect) to 100 (complete control)
# [21] = Postemergence, 500 g ai/ha, visual rating after 13 to 15 days, scale 0 (no effect) to 100 (complete control)
# [22] = Preemergence, 500 g ai/ha, scale 0 to 100
compound,measurement,setting,value
CCN1N=C(C(C)(C)C)CC1C(=O)Nc1cc(C(=O)N2CC=CC2)ccc1F (racemic) [Compound 310],Lambsquarters plant response rating (0 to 100 scale),lambsquarters; [4],100
same,Lambsquarters plant response rating,lambsquarters; [5],60
same,"Plant response rating, Lambsquarters",lambsquarters; [6],100
same,Lambsquarters plant response rating,lambsquarters; [7],80
same,Wheat plant response rating,wheat; [5],10
same,Wheat plant response rating,wheat; [7],20
same,Blackgrass plant response rating,blackgrass; [5],10
same,Blackgrass plant response rating,blackgrass; [7],30
same,Morningglory plant response rating (0 to 100 scale),morningglory; [4],0
same,Morningglory plant response rating,morningglory; [5],0
same,"Plant response rating, Morningglory",morningglory; [6],10
same,Morningglory plant response rating,morningglory; [7],50
same,"Crabgrass, Large plant response rating (0 to 100 scale)",large crabgrass; [8],90
same,"Crabgrass, Large plant response rating",large crabgrass; [9],10
same,"Plant response rating, Crabgrass, Large",large crabgrass; [10],100
same,"Crabgrass, Large plant response rating",large crabgrass; [11],30
same,"Oat, Wild plant response rating",wild oat; [5],30
same,"Oat, Wild plant response rating",wild oat; [7],40
same,Rice plant response rating,rice,80
same,Ducksalad plant response rating,ducksalad,90
same,Barnyardgrass plant response rating (0 to 100 scale),barnyardgrass [1]; [8],60
same,Barnyardgrass plant response rating,barnyardgrass [1]; [9],0
same,"Plant response rating, Barnyardgrass",barnyardgrass [1]; [10],90
same,Barnyardgrass plant response rating,barnyardgrass [1]; [11],20
same,Cocklebur plant response rating (0 to 100 scale),cocklebur; [8],10
same,Cocklebur plant response rating,cocklebur; [9],0
same,"Plant response rating, Cocklebur",cocklebur; [10],50
same,Cocklebur plant response rating,cocklebur; [11],20
same,Corn plant response rating (0 to 100 scale),corn; [8],40
same,Corn plant response rating,corn; [9],0
same,"Plant response rating, Corn",corn; [10],70
same,Corn plant response rating,corn; [11],20
same,Barnyardgrass plant response rating,barnyardgrass [2],90
same,"Sedge, Umbrella plant response rating",[3],80
same,Surinam Grass plant response rating (0 to 100 scale),Surinam grass; [4],30
same,Surinam Grass plant response rating,Surinam grass; [5],10
same,"Plant response rating, Surinam Grass",Surinam grass; [6],70
same,Surinam Grass plant response rating,Surinam grass; [7],20
same,Velvetleaf plant response rating,velvetleaf; [5],20
same,"Plant response rating, Velvetleaf",velvetleaf; [6],100
same,Velvetleaf plant response rating,velvetleaf; [7],50
CC(=O)c1cccc(NC(=O)c2cc(C(C)(C)C)nn2CCF)c1 [Compound 128],"Plant response rating, Lambsquarters",lambsquarters; [12],70
same,Lambsquarters plant response rating,lambsquarters; [13],0
same,Lambsquarters plant response rating,lambsquarters; [14],60
same,"Plant response rating, Lambsquarters",lambsquarters; [15],0
same,Wheat plant response rating,wheat; [13],0
same,Wheat plant response rating,wheat; [14],20
same,Blackgrass plant response rating,blackgrass; [13],10
same,Blackgrass plant response rating,blackgrass; [14],10
same,"Plant response rating, Morningglory",morningglory; [12],30
same,"Plant response rating, Morningglory",morningglory; [15],20
same,"Plant response rating, Crabgrass, Large",large crabgrass; [16],100
same,"Crabgrass, Large plant response rating",large crabgrass; [17],20
same,"Crabgrass, Large plant response rating",large crabgrass; [18],20
same,"Plant response rating, Crabgrass, Large",large crabgrass; [19],90
same,"Oat, Wild plant response rating",wild oat; [13],10
same,"Oat, Wild plant response rating",wild oat; [14],10
same,Rice plant response rating,"rice; visual rating, 13 to 15 days",60
same,Ducksalad plant response rating,"ducksalad; visual rating, 13 to 15 days",90
same,"Plant response rating, Barnyardgrass",barnyardgrass [1]; [16],90
same,Barnyardgrass plant response rating,barnyardgrass [1]; [17],20
same,Barnyardgrass plant response rating,barnyardgrass [1]; [18],30
same,"Plant response rating, Barnyardgrass",barnyardgrass [1]; [19],80
same,"Plant response rating, Cocklebur",cocklebur; [16],20
same,Cocklebur plant response rating,cocklebur; [17],90
same,Cocklebur plant response rating,cocklebur; [18],100
same,"Plant response rating, Cocklebur",cocklebur; [19],20
same,"Plant response rating, Corn",corn; [16],20
same,"Plant response rating, Corn",corn; [19],0
same,Barnyardgrass plant response rating,"barnyardgrass [2]; visual rating, 13 to 15 days",70
same,"Sedge, Umbrella plant response rating","[3]; visual rating, 13 to 15 days",90
same,"Plant response rating, Surinam Grass",Surinam grass; [12],60
same,Surinam Grass plant response rating,Surinam grass; [13],10
same,Surinam Grass plant response rating,Surinam grass; [14],20
same,"Plant response rating, Surinam Grass",Surinam grass; [15],40
same,"Plant response rating, Velvetleaf",velvetleaf; [12],80
same,Velvetleaf plant response rating,velvetleaf; [13],50
same,Velvetleaf plant response rating,velvetleaf; [14],60
same,"Plant response rating, Velvetleaf",velvetleaf; [15],70
CCn1nc(C(C)(C)C)cc1C(=O)Nc1cccc(C(=O)NCC2CC2)c1 [Compound 62],"Plant response rating, Lambsquarters",lambsquarters; [20],90
same,Lambsquarters plant response rating,lambsquarters; [13],80
same,"Plant response rating, Lambsquarters",lambsquarters; [15],100
same,"Plant response rating, Wheat",wheat; [20],10
same,Wheat plant response rating,wheat; [13],0
same,"Plant response rating, Blackgrass",blackgrass; [20],70
same,Blackgrass plant response rating,blackgrass; [13],10
same,"Plant response rating, Morningglory",morningglory; [20],60
same,Morningglory plant response rating,morningglory; [13],20
same,"Plant response rating, Morningglory",morningglory; [15],10
same,"Plant response rating, Crabgrass, Large",large crabgrass; [21],20
same,"Crabgrass, Large plant response rating",large crabgrass; [22],100
same,"Crabgrass, Large plant response rating",large crabgrass; [17],10
same,"Plant response rating, Crabgrass, Large",large crabgrass; [19],80
same,"Plant response rating, Oat, Wild",wild oat; [20],30
same,"Oat, Wild plant response rating",wild oat; [13],10
same,Rice plant response rating,"rice; visual rating, 13 to 15 days",30
same,Ducksalad plant response rating,"ducksalad; visual rating, 13 to 15 days",80
same,"Plant response rating, Barnyardgrass",barnyardgrass [1]; [21],50
same,Barnyardgrass plant response rating,barnyardgrass [1]; [22],80
same,Barnyardgrass plant response rating,barnyardgrass [1]; [17],20
same,"Plant response rating, Barnyardgrass",barnyardgrass [1]; [19],20
same,"Plant response rating, Cocklebur",cocklebur; [21],100
same,Cocklebur plant response rating,cocklebur; [22],10
same,Cocklebur plant response rating,cocklebur; [17],70
same,"Plant response rating, Cocklebur",cocklebur; [19],0
same,"Plant response rating, Corn",corn; [21],20
same,Corn plant response rating,corn; [22],10
same,Corn plant response rating,corn; [17],10
same,"Plant response rating, Corn",corn; [19],0
same,Barnyardgrass plant response rating,"barnyardgrass [2]; visual rating, 13 to 15 days",70
same,"Sedge, Umbrella plant response rating","[3]; visual rating, 13 to 15 days",80
same,"Plant response rating, Surinam Grass",Surinam grass; [20],70
same,Surinam Grass plant response rating,Surinam grass; [13],50
same,"Plant response rating, Surinam Grass",Surinam grass; [15],10
same,"Plant response rating, Velvetleaf",velvetleaf; [20],70
same,Velvetleaf plant response rating,velvetleaf; [13],60
same,"Plant response rating, Velvetleaf",velvetleaf; [15],80
